Data: US10399971B2, “Compound for treating or preventing hyperuricemia or gout” (JIANGSU ATOM BIOSCIENCE AND PHARMACEUTICAL CO., LTD., priority 2015, dated 2019)

Tests used:
Format in all cases: cell-based
hURAT1 = target: T1, hURAT1 (Homo sapiens, UniProt Q96S37); assay: Inhibition assay of uric acid transport in HEK293-hURAT1 transfection cell line; details: 500 nM, HEK293-hURAT1 transfection cell line, 14C-uric acid, average of three tests; for inhibition at 0.5 µM: read-out: Inhibitory rates of uric acid transport, ±SD (%)
T1 sequence (Q96S37 1-553): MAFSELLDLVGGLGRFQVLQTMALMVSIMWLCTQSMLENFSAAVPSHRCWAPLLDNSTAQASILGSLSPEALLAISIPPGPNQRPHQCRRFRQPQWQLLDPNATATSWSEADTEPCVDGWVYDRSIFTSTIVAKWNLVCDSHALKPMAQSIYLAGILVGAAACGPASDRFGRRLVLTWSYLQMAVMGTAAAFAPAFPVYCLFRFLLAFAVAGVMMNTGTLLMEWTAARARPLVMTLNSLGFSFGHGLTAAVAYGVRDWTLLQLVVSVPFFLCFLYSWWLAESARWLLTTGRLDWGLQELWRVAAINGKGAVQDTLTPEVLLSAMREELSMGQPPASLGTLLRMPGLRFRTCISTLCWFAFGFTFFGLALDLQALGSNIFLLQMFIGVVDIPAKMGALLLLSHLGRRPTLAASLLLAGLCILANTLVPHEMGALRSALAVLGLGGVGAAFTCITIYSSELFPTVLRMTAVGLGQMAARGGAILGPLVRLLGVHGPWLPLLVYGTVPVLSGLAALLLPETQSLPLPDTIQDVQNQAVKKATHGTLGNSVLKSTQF
Method: 2.1 Construction of a HEK293 stable cell line with high expression of hURAT1: The plasmid pCMV6-hURAT1 was transfected into HEK293 cells, then the stable strain was obtained by the G418 (final concentration 500 μg/mL) resistance screening, which is the high expression of hURAT1 transporter membrane protein.
2.2 To a coated 24-well plate was added 200 μL of 0.1 mg/mL poly-lysine per well and the plate was left overnight. Poly-lysine was removed from wells. The wells were cleaned thoroughly with aseptic water and dried for use.
2.3 To the above coated 24 well plate was added HEK293-hURAT1 stable cells (2×10^5 cells per well). The cells was cultured at 37° C. under 5% CO2 for 3 days.
The solution was fully mixed to give HBSS buffer (pH value: 7.4). The buffer was stored at −20° C.
2.5 The HBSS buffer was warmed to 37° C. in a water bath. Washed cells with HBSS twice, added 160 μL of HBSS and 20 μL test compound per well. The final concentration of tested compound per well is 500 nM. The blank control well contains only 180 μL of HBSS without tested compound. The plate was placed at room temperature for 30 min.
2.6 To each well was added 20 μL of 50 μM ^14C-Uric acid. The plate was placed at room temperature for 20 min.
2.7 The solution in each well was removed and the cells in each well were washed with pre-cooled HBSS buffer. To each well was added 0.2 M NaOH to dissolve the cells. The solution containing cell fragments was collected and the right amount of scintillation liquid was added.
The formula for calculating the inhibitory rate of uric acid transport for compounds was shown as below: […]

[1] = test system: human normal liver cell line L-02; assay: Cytotoxicity test on human normal liver cell line L-02 (Alamar Blue); details: L02, L-02 cells, 120 h incubation, cell viability, read-out: half inhibitory concentration (IC50) against L-02
Method: (§1) 2.1 The normal liver cell lines L-02 and WRL-68 were cultured with DMEM culture medium (containing 10% of fetal bovine serum, 100 U/mL of penicillin and 0.1 mg/mL of streptomycin) in an incubator under 5% CO2 at 37° C. until the cell density was about 90%, respectively.
(§2) 2.3 Tested compounds and benzbromarone at different concentration gradients were prepared by using the DMEM culture medium and added into wells at 100 μL/well as compounds wells. The DMEM culture medium was added into wells at 100 μL/well without tested compound as negative control wells.
(§3) This 10× Alamar Blue solution was diluted into 1× Alamar Blue solution with phenol red free DMEM culture medium before use.
(§4) 2.5 The cells were washed with PBS (0.1 M, pH=7.4) twice. The Alamar Blue solution was added into wells at 100 μL/well. 100 μL of Alamar Blue solution was added into wells without cells to serve as blank control wells. The 96-well plate was placed in an incubator under 5% CO2 at 37° C. for 3 h. Each concentration of compound was repeated three times during the test.
(§5) The fluorescence value of the cells containing compound is the F(test compound); the fluorescence value of the cells without compound as blank control is the F(blank control); the fluorescent value of the cells from negative control group is F(negative control). The average value and standard deviation of cell viability of three repeated concentrations was calculated by the following formula: […]
(§6) 2.7 The half inhibitory concentration (IC50) of the compound for the cells L-02 and WRL-68 was obtained from the cell viability by Prism Graph software.

[2] = test system: human normal liver cell line WRL-68; assay: Cytotoxicity test on human normal liver cell line WRL-68 (Alamar Blue); details: WRL68, WRL-68 cells, 120 h incubation, cell viability, read-out: half inhibitory concentration (IC50) against WRL-68
Method: as §1, §2, §3, §4, §5, §6

| SMILES | Inhibitory rates of uric acid transport, ±SD (%) (hURAT1) | inhibition at 0.5 µM (hURAT1) | IC50 [1] | IC50 [2] | Inhibitory rates of uric acid transport, ±SD (%) (hURAT1; 0.5 µM) |
| --- | --- | --- | --- | --- | --- |
| [2H]c1ccc2nc(CC)c(C(=O)c3cc(Br)c(O)c(Br)c3)n2c1 [Compound 69, (6-deuterium-2-ethylimidazo[1,2-a]pyridine-3-yl)(3,5-dibromo-4-hydroxyphenyl)methanone] | 71.10 ± 2.50% | – | – | – | – |
| CCc1nc2ccccn2c1C(=O)c1cc(Cl)c(O)c(I)c1 [Compound 9, (3-chloro-4-hydroxy-5-iodophenyl)(2-ethylimidazo[1,2-a]-pyridin-3-yl)methanone] | – | 60.6 ± 0.82% | > 100 µM | > 100 µM | – |
| CCc1nc2ccccn2c1C(=O)c1cc(Br)c(O)c(Br)c1 [Compound 4, (3,5-dibromo-4-hydroxyphenyl)(2-ethylimidazo[1,2-a]-pyridin-3-yl)methanone] | – | 71.7 ± 1.84% | > 100 µM | > 100 µM | – |
| CCc1nc2ccc(F)cn2c1C(=O)c1cc(F)c(O)c(I)c1 [Compound 51, (2-ethyl-6-fluoroimidazo[1,2-a]pyridin-3-yl)(3-fluoro-4-hydroxy-5-iodophenyl)methanone] | – | 61.3 ± 1.1% | > 100 µM | > 100 µM | – |
| CCc1nc2ccccn2c1C(=O)c1cc(Cl)c(O)c(Br)c1 [Compound 45, (3-bromo-5-chloro-4-hydroxyphenyl)(2-ethylimidazo[1,2-a]-pyridin-3-yl)methanone] | – | 62.9 ± 3.34% | > 100 µM | > 100 µM | – |
| CCc1nc2ccc(OC)cn2c1C(=O)c1cc(Br)c(O)c(Br)c1 [Compound 33, (3,5-dibromo-4-hydroxyphenyl)(2-ethyl-6-methoxyimidazo[1,2-a]pyridine-3-yl)methanone] | – | 65.06 ± 0.39% | > 100 µM | > 100 µM | – |
| CCc1nc2cc(C)c(Br)cn2c1C(=O)c1cc(Br)c(O)c(Br)c1 [Compound 56, (6-bromo-2-ethyl-7-methylimidazo[1,2-a]pyridin-3-yl)-(3,5-dibromo-4-hydroxyphenyl)methanone] | – | 62.8 ± 9.34% | > 100 µM | > 100 µM | – |
| CCc1nc2ccccn2c1C(=O)c1cc(Br)c(O)c(C#N)c1 [Compound 38, 3-bromo-5-(2-ethylimidazo[1,2-a]pyridine-3-carbonyl)-2-hydroxybenzonitrile] | – | 62.4 ± 0.72% | – | – | – |
| CCc1nc2ccccn2c1C(=O)c1cc(Br)c(O)c(C(F)(F)F)c1 [Compound 29, (3-bromo-4-hydroxy-5-(trifluoromethyl)phenyl)-(2-ethylimidazo[1,2-a]pyridine-3-yl)methanone] | – | 64.35 ± 0.12% | – | – | – |
| CCc1nc2ccccn2c1C(=O)c1cc(Br)c(O)c(I)c1 [Compound 11, (3-bromo-4-hydroxy-5-iodophenyl)(2-ethylimidazo[1,2-a]-pyridine-3-yl)methanone] | – | 63.5 ± 0.95% | – | – | – |
| CCCc1nc2ccccn2c1C(=O)c1cc(Br)c(O)c(Br)c1 [Compound 41, (3,5-dibromo-4-hydroxyphenyl)(2-propylimidazo[1,2-a]-pyridine-3-yl)methanone] | – | 55.5 ± 1.02% | – | – | – |
| CCc1nc2ccccn2c1C(=O)c1cc(I)c(O)c(C#N)c1 [Compound 39, 5-(2-ethylimidazo[1,2-a]pyridine-3-carbonyl)-2-hydroxy-3-iodobenzonitrile] | – | 64.1 ± 2.25% | – | – | – |
| CCc1nc2ccc(F)cn2c1C(=O)c1cc(Cl)c(O)c(Br)c1 [Compound 18, (3-bromo-5-chloro-4-hydroxyphenyl)(2-ethyl-6-fluoroimidazo[1,2-a]pyridine-3-yl)methanone] | – | 65.4 ± 0.71% | > 100 µM | > 100 µM | – |
| CCc1nc2ccccn2c1C(=O)c1cc(I)c(O)c(C#N)c1 [Compound 75, 5-(2-ethylimidazo[1,2-a]pyridine-3-carbonyl)-2-hydroxy-3-iodobenzonitrile hydrogen chloride] | – | – | > 100 µM | > 100 µM | 62.58 ± 0.84% |
| CCc1nc2ccccn2c1C(=O)c1cc(C)c(O)c(I)c1 [Compound 12, (2-ethylimidazo[1,2-a]pyridine-3-yl)(4-hydroxy-3-iodo-5-methylphenyl)methanone] | – | 56.24 ± 0.12% | – | – | – |
| CCc1nc2ccccn2c1C(=O)c1cc(I)c(O)c(I)c1 [Compound 5, (2-ethylimidazo[1,2-a]pyridine-3-yl)(4-hydroxy-3,5-diiodophenyl)methanone] | – | 63 ± 3.33% | > 100 µM | > 100 µM | – |
| CCc1nc2ccc(C)cn2c1C(=O)c1cc(Br)c(O)c(Br)c1 [Compound 30, (3,5-dibromo-4-hydroxyphenyl)(2-ethyl-6-methylimidazo[1,2-a]pyridine-3-yl)methanone] | – | 68 ± 1.49% | – | – | – |
| CCc1nc2ccc(O)cn2c1C(=O)c1cc(Br)c(O)c(Br)c1 [Compound 52, (3,5-dibromo-4-hydroxyphenyl)(2-ethyl-6-hydroxyimidazo-[1,2-a]pyridin-3-yl)methanone] | – | 57.5 ± 3.61% | > 100 µM | > 100 µM | – |
| CCc1nc2ccc(F)cn2c1C(=O)c1cc(Cl)c(O)c(I)c1 [Compound 19, (3-chloro-4-hydroxy-5-iodophenyl)(2-ethyl-6-fluoroimidazo[1,2-a]pyridine-3-yl)methanone] | – | 68.8 ± 2.83% | – | – | – |
